Measured values reported in publication PMC7531601, “Exploiting Lactoferricin (17–30) as a Potential Antimicrobial and Antibiofilm Candidate Against Multi-Drug-Resistant Enteroaggregative Escherichia coli” (Frontiers in Microbiology, 2020).
Converted amounts (≈) assume the structure as drawn.

How the values were obtained:
MDR-EAEC isolates [1] = experiment: In vitro antibiotic susceptibility testing of MDR-EAEC isolates; assay type: cell-based, enteroaggregative Escherichia coli; design: key to Antibiotic Susceptibility testing / MIC Values (mg/L), given as class symbol: S – Sensitive; R- Resistant; settings: for MIC: Escherichia coli
From the text: E. coli ATCC 25922 was used as the quality control strain for antibiotic susceptibility testing.

MDR-EAEC isolates [2] = experiment: In vitro time-kill kinetics; assay type: cell-based, enteroaggregative Escherichia coli; settings: 10 μg/ml, ca. 1 × 10^7 CFU/ml, CA-MH broth, 37°C
Experimental: The in vitro dose- and time-kill kinetics was assessed by co-incubating the log-phase cultures of each of MDR-EAEC isolates (ca. 1 × 10^7 CFU/ml) in cation-adjusted Mueller Hinton (CA-MH) broth with MIC (1 × and 2 × ) of Lfcin (17–30) (Supplementary Information S6). The desired inoculum for each MDR-EAEC strain and Lfcin (17–30) suspended in CA-MH broth was as follows: Group I, 10^7 CFU of MDR-EAEC (50 μl) with 1 × MIC of Lfcin (17–30) (50 μl); Group II, 10^7 CFU of MDR-EAEC (50 μl) with 2 × MIC of Lfcin (17–30) (50 μl); Group III, 10^7 CFU of MDR-EAEC (50 μl) with 10 μg/ml of Meropenem (50 μl); and Group IV, 10^7 CFU of MDR-EAEC (50 μl) in CA-MH broth (50 μl). The MDR-EAEC counts were enumerated ([Miles et al., 1938]) at 0, 30, 60, 90, 120, 150, and 180 min, and 24, 48, and 72 h post co-incubation.
FIGURE 2 Dose- and time-dependent time-kill assay of MDR-EAEC isolates co-cultured with Lfcin (17–30). MDR-EAEC isolates (n = 3) were co-cultured with 1 × MIC of Lfcin (17–30) (A) and 2 × MIC of Lfcin (17–30) (B) in CA-MH broth at 37°C under static conditions with respective controls of MDR-EAEC isolates (untreated and meropenem-treated). Data expressed as the mean ± standard deviation (log10CFU/ml) of three independent experiments (***P < 0.001). […]

G. mellonella larvae = experiment: LDH cytotoxicity assay of larval haemolymph; assay type: in vivo, Galleria mellonella; settings: infected larvae treated 3 h pi
Experimental: (§1) Galleria mellonella larvae were grouped 40 per group for in vivo antimicrobial testing of Lfcin (17–30) as follows: group I (MDR-EAEC infection control), groups II and III (infection + treatment groups), group IV (PBS control), and group V [Lfcin(17–30) control]. Optimized LD50 dose of MDR-EAEC (a cocktail of three strains) was administered to larvae of groups I to III, while MIC dose of Lfcin (17–30) and Meropenem was administered 3 h post-infection (pi) in groups II and III, respectively. Larval group IV was injected with sterile PBS, whereas MIC dose of Lfcin (17–30) was administered in group V.
The larvae were then observed for their survival rate, melanization (Supplementary Information S7), MDR-EAEC counts (Supplementary Information S8), hemocyte density (Supplementary Information S9) ([Wand et al., 2013]), lactate dehydrogenase (LDH) cytotoxicity assay (Supplementary Information S10) ([Gibreel and Upton, 2013]), and histopathology (Supplementary Information S11) ([Perdoni et al., 2014]), at an interval of 6 h till 24 h, followed by 24-h interval up to 120 h pi.
G. mellonella (n=3 larvae per group) were analysed for the production of LDH, as a marker of cell damage, at an interval of 6 h pi for 24 h, followed by 24 h interval till 96 h pi using QuantiChrom LDH cytotoxicity assay kit, according to the manufacturer’s instructions. The positive and negative controls used in this study were […]. The absorbance was read using ELISA plate reader at 500 nm; the haemolymph from untreated larvae served as background control and the cytotoxicity was calculated as, Cytotoxicity (%) = (ODSample - ODControl)/ (ODTotal Lysis - ODControl) x 100, wherein, sample is the control absorbance of treated cell; control is the experimental absorbance of the untreated cell control and total lysis is the absorbance of Triton X-100 treated cells.

[3] = tested on: G. mellonella larvae infected with MDR-EAEC (a cocktail of three strains); experiment: G. mellonella larval survival; assay type: in vivo, Galleria mellonella; settings: larvae infected with LD50 dose (10^6 CFU) of MDR-EAEC, MIC dose 3 h pi, up to 120 h pi, 40 larvae per group
Experimental: The final instar of G. mellonella larvae was utilized for performing the in vivo assays ([Morgan et al., 2014]). The larvae (ca. 200–250 mg) inoculated with aliquots of MDR-EAEC suspensions (10 μl) by injection using Hamilton syringe (26 gauge) via the last right pro-leg were incubated at 37°C and the observations were noted. The larvae kept in a sterile environment were provided with ad lib food during the experiment.
The determined LD50 dose for each MDR-EAEC strain in the larvae was validated and employed further in the in vivo experiments to evaluate the antibacterial efficacy of Lfcin (17–30).
as §1, with “V. […]” for “V.”

Row | Compound | MIC (MDR-EAEC isolates [1]; KY941937.1 (MDR 2)) [µg/mL] | MIC (MDR-EAEC isolates [1]; KY941938.1 (MDR 3)) [µg/mL] | Antibiotic Susceptibility testing (MDR-EAEC isolates [1]; KY941936.1 (MDR 1)) | MIC Values (mg/L), given as class symbol (MDR-EAEC isolates [1]; KY941936.1 (MDR 1)) | Antibiotic Susceptibility testing (MDR-EAEC isolates [1]; KY941937.1 (MDR 2)) | Antibiotic Susceptibility testing (MDR-EAEC isolates [1]; KY941938.1 (MDR 3)) | MIC Values (mg/L), given as class symbol (MDR-EAEC isolates [1]; KY941937.1 (MDR 2)) | MIC Values (mg/L), given as class symbol (MDR-EAEC isolates [1]; KY941938.1 (MDR 3)) | also measured
1 | CO/N=C(\C(=O)N[C@@H]1C(=O)N2C(C(=O)O)=C(CSc3nc(=O)c(=O)[nH]n3C)CS[C@H]12)c1csc(N)n1 [CTR, Ceftriaxone] | > 240 | > 240 | S | S | R | R |  |  | 
2 | C[C@@H](O)[C@H]1C(=O)N2C(C(=O)O)=C(S[C@@H]3CN[C@H](C(=O)N(C)C)C3)[C@H](C)[C@H]12 [meropenem, reference compound] |  |  |  |  |  |  |  |  | reduction in bacterial counts at 30 min post-coincubation (MDR-EAEC isolates [2]): highly significant (P < 0.001) reduction; time post-coincubation after which complete inhibition (MDR-EAEC isolates [2]): 60 min; LDH cytotoxicity (G. mellonella larvae): Almost similar observations; survival rate [3]: 85%
3 | CN(C)[C@@H]1C(O)=C(C(N)=O)C(=O)[C@@]2(O)C(O)=C3C(=O)c4c(O)cccc4[C@@](C)(O)[C@H]3C[C@@H]12 [TE, Tetracycline] | 2 (≈ 4.5 µM) | 30 (≈ 67.5 µM) | R |  | R | R |  |  | MIC (MDR-EAEC isolates [1]; KY941936.1 (MDR 1)): 60 µg/mL (≈ 135 µM)
4 | C[C@@H](O)[C@H]1C(=O)N2C(C(=O)O)=C(SCCN=CN)C[C@H]12 [IMI, Imipenem] |  |  | S | S | S | S | S | S | 
5 | CNC(C)C1CCC(N)C(OC2C(N)CC(N)C(OC3OCC(C)(O)C(NC)C3O)C2O)O1 (stereo not drawn) [GEN, Gentamicin] |  |  | S | S | S | S | S | S | 
6 | O=C(O)c1cn(C2CC2)c2cc(N3CCNCC3)c(F)cc2c1=O [CIP, Ciprofloxacin] | 120 (≈ 362 µM) | 60 (≈ 181 µM) | S |  | R | R |  |  | 
7 | O=C(N[C@H](CO)[C@H](O)c1ccc([N+](=O)[O-])cc1)C(Cl)Cl [CL, Chloramphenicol] |  |  | S | S | S | S | S | S | 
8 | Colistin sulphate |  |  | S | S | S | S | S | S | 
9 | Co-trimoxazole [COT] |  |  | R |  | R | R |  |  | MIC Values (MDR-EAEC isolates [1]; KY941936.1 (MDR 1)): >240 µg/mL; MIC Values (MDR-EAEC isolates [1]; KY941937.1 (MDR 2)): >240 µg/mL; MIC Values (MDR-EAEC isolates [1]; KY941938.1 (MDR 3)): >240 µg/mL
10 | Cc1cc(NS(=O)(=O)c2ccc(N)cc2)no1 [SXT, Sulfamethoxazole] |  |  | R |  | S | R |  |  | 
11 | CC1(C)S[C@@H]2[C@H](NC(=O)[C@H](N)c3ccccc3)C(=O)N2[C@H]1C(=O)O [AMP, Ampicillin] | > 240 | > 240 | R |  | R | R |  |  | MIC (MDR-EAEC isolates [1]; KY941936.1 (MDR 1)): > 240 µg/mL
